Data: patent US12037345B2, “Heterobicyclic compounds for inhibiting the activity of SHP2” (TAIHO PHARMACEUTICAL CO., LTD., priority 2018, dated 2024)
Like-named read-outs stand apart in the source and are kept apart here.

What was measured:
SHP2 = SHP2 (Homo sapiens (Human), UniProt Q06124); experiment: SHP2 Biochemical Assay (DiFMUP conversion, pIRS1-activated)
Procedure: SHP2 activity was monitored by measuring the conversion of the surrogate substrate 6,8-difluoromethylumbelliferyl phosphate (DiFMUP) to the fluorescent product, 6,8-difluoromethylumbelliferone (DiFMU).
SHP2 was pre-incubated with test compounds and the activating peptide pIRS1 (H2N-LN(pY)IDLDLV-(PEG)8-LST(pY)ASINFQK-amide) for 30 min, prior to addition of the 6,8-difluoromethylumbelliferyl phosphate (DiFMUP), (Thermo Fisher D6567). Final assay concentrations were 10 pM SHP2, […] pIRS1 peptide, 50 μM DiFMUP, 25 mM Bis-Tris propane, pH 7.0, 150 mM NaCl, 0.05% (v/v) Tween-20, 0.5 mM TCEP and 5% (v/v) DMSO. Rates of reaction were then measured over 30 min by monitoring fluorescence on a BMG Pherastar reader at excitation 360 nm/emission 450 nm. IC50 values were calculated in singlicate from the normalized dose-response plots using four parameter logistic curve fit. The Experiment for each compound was carried out in one time or multiple times, and the IC50 values were shown as a single value (for a compound measured in a single experiment) or an average value (for a compound measured in multiple experiments).

[1] = tested on: pERK (phospho-p44/42 ERK) in HCC827 cells; experiment: Cellular pERK Inhibition Assay, Method A (In-Cell Western); format: cell-based; conditions: Homo sapiens
Procedure: Cellular pERK Inhibition Assay
pERK levels were determined using the In-Cell Western assay. HCC827 cells (ATCC, Manassas, USA) were seeded into 384-well plates at a density of 1×10^4 cells/well in RPMI1640 medium supplemented with 10% FBS and incubated 24h. Compounds were diluted first in DMSO and then into serum-free medium, before being added to cells in quadruplicate to give a final concentration of 0.2% DMSO. Plates were incubated at 37° C. for the indicated time in a humidified atmosphere of 5% CO2 in air.
Following compound treatment, cells were fixed with formalin neutral buffer solution for 20 minutes at room temperature. Plates were washed three times with 0.1% Triton-X in PBS and cells were blocked for 1 hour with Odyssey blocking buffer (LI-COR, #927-40000). After shaking out blocking buffer, cells were incubated with phospho-p44/42 ERK antibody (Cell Signalling Technology, #4370, 1:200) diluted in Odyssey blocking buffer at 4° C. overnight. Plates were washed again and cells were incubated for 1 hour with Goat anti-Rabbit […] (LI-COR, #926-32211, 1:800) diluted in Odyssey blocking buffer. After washing and removing wash solution completely using a centrifuge machine, cells were scanned on the Odyssey (LI-COR), following the manufacturer's instructions. The average signal from blank wells (no cells added) was subtracted from the signals from each sample well. Levels of pERK were then expressed as percent of control, using DMSO treated samples as control. The relative IC50 values were calculated in quadruplicate from the normalized dose-response plots using four parameter logistic curve fit. The Experiment for each compound was carried out in one time or multiple times, and the IC50 values were shown as a single value (for a compound measured in a single experiment) or an average value (for a compound measured in multiple experiments).

[2] = Table 19, head prints unit as "-M"
[3] = Table 19, head prints unit as "-M", read-out: pERK (IC50) Method A
[4] = Table 20, read-out: pERK (IC50, μM) Method A

SHP2, sequence (Q06124 whole entry): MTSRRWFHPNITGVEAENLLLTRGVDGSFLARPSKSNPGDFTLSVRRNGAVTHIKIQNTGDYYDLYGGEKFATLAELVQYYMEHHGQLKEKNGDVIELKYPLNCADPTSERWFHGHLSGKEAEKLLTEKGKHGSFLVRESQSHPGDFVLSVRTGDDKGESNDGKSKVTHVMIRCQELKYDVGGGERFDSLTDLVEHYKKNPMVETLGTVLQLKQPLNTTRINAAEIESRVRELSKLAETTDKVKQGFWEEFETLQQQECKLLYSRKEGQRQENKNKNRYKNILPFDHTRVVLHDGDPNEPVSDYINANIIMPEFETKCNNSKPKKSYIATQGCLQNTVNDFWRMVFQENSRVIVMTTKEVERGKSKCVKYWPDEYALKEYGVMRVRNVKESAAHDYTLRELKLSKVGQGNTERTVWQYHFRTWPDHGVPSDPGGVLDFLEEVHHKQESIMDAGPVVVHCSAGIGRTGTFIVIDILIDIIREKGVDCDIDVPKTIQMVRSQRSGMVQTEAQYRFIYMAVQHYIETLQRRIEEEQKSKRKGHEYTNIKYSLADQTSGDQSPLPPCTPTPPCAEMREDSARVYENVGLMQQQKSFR

SMILES | IC50 (SHP2; [2]) | IC50 [1, 3] | IC50 (SHP2; Table 20) | IC50 [1, 4]
Cn1cc2c(Cl)c(-c3c[nH]c4nc(N5[C@@H]6CC[C@H]5[C@H](F)[C@H](N)C6)n(C)c(=O)c34)ccc2n1 (racemic) [Example 26, rac-2-((1S,2R,3R,5R)-3-amino-2-fluoro-8-azabicyclo[3.2.1]octan-8-yl)-5-(4-chloro-2-methyl-2H-indazol-5-yl)-3-methyl-3,7-dihydro-4H-pyrrolo[2,3-d]pyrimidin-4-one] | 11 nM | 0.088 µM | – | –
CCn1cc2c(Cl)c(-c3n[nH]c4nc(N5C[C@@H]6CC[C@H]5[C@H]6N)n(C)c(=O)c34)ccc2n1 (racemic) [Example 125, rac-6-((1S,4S,7S)-7-amino-2-azabicyclo[2.2.1]heptan-2-yl)-3-(4-chloro-2-ethyl-2H-indazol-5-yl)-5-methyl-1,5-dihydro-4H-pyrazolo[3,4-d]pyrimidin-4-one] | 17 nM | 0.26 µM | – | –
Cn1nc2ccc(-c3n[nH]c4nc(N5C[C@@H]6CC[C@H]5[C@H]6N)n(C)c(=O)c34)c(Cl)c2c1Cl (racemic) [Example 126, rac-6-((1S,4S,7S)-7-amino-2-azabicyclo[2.2.1]heptan-2-yl)-3-(3,4-dichloro-2-methyl-2H-indazol-5-yl)-5-methyl-1,5-dihydro-4H-pyrazolo[3,4-d]pyrimidin-4-one] | 13 nM | 0.084 µM | – | –
Cn1c(N2C[C@@H]3CC[C@H]2[C@H]3N)nc2[nH]nc(-c3ccc4ncsc4c3Cl)c2c1=O (racemic) [Example 134, rac-((1S,4S,7S)-7-amino-2-azabicyclo[2.2.1]heptan-2-yl)-3-(7-chlorobenzo[d]thiazol-6-yl)-5-methyl-1,5-dihydro-4H-pyrazolo[3,4-d]pyrimidin-4-one] | 4 nM | 0.083 µM | – | –
CN[C@H]1[C@H]2CC[C@@H]1N(c1nc3[nH]cc(-c4ccc5nn(C)cc5c4Cl)c3c(=O)n1C)C2 (racemic) [Example 135, rac-5-(4-chloro-2-methyl-2H-indazol-5-yl)-3-methyl-2-((1S,4S,7S)-7-(methylamino)-2-azabicyclo[2.2.1]heptan-2-yl)-3,7-dihydro-4H-pyrrolo[2,3-d]pyrimidin-4-one] | 48 nM | 0.95 µM | – | –
Cn1cc2c(Cl)c(-c3c[nH]c4nc(N5[C@H]6CC[C@@H]5[C@@H](N)C6)n(C)c(=O)c34)ccc2n1 (racemic) [Example 164, 2-(rac-(1R,2S,4S)-2-amino-7-azabicyclo[2.2.1]heptan-7-yl)-5-(4-chloro-2-methyl-2H-indazol-5-yl)-3-methyl-3,7-dihydro-4H-pyrrolo[2,3-d]pyrimidin-4-one] | – | – | 170 nM | 6.3 µM
Cn1nc2ccc(-c3c[nH]c4nc(N5[C@H]6CC[C@@H]5[C@](C)(N)C6)n(C)c(=O)c34)c(Cl)c2c1Cl (racemic) [Example 173, rac-2-((1R,2R,4S)-2-amino-2-methyl-7-azabicyclo[2.2.1]heptan-7-yl)-5-(3,4-dichloro-2-methyl-2H-indazol-5-yl)-3-methyl-3,7-dihydro-4H-pyrrolo[2,3-d]pyrimidin-4-one] | – | – | 2.5 nM | 0.14 µM
Cn1nc2ccc(-c3n[nH]c4nc(N5C[C@H]6CC[C@@H]5[C@@H]6N)n(C)c(=O)c34)c(Cl)c2c1Cl [Example 171, 6-((1R,4R,7R)-7-amino-2-azabicyclo[2.2.1]heptan-2-yl)-3-(3,4-dichloro-2-methyl-2H-indazol-5-yl)-5-methyl-1,5-dihydro-4H-pyrazolo[3,4-d]pyrimidin-4-one] | – | – | – | 0.02 µM
Cn1nc2ccc(-c3c[nH]c4nc(N5C[C@H]6CC[C@@H]5[C@@H]6N)n(C)c(=O)c34)c(Cl)c2c1Cl [Example 172, 2-((1R,4R,7R)-7-amino-2-azabicyclo[2.2.1]heptan-2-yl)-5-(3,4-dichloro-2-methyl-2H-indazol-5-yl)-3-methyl-3,7-dihydro-4H-pyrrolo[2,3-d]pyrimidin-4-one] | – | – | – | 0.016 µM
